Source: patent US9409908B2 (priority 2012, dated 2016)
Counter-ions that a name gives are not always drawn. Like-named read-outs stand apart in the source and are kept apart here.

Columns and labels:
[1] = target: purified human Factor XIa (Homo sapiens (Human), UniProt P03951); assay: biochemical; assay type: biochemical
[2] = target: purified human plasma kallikrein (Homo sapiens (Human), UniProt P03952); assay: biochemical; assay type: biochemical
Sequence of purified human plasma kallikrein (P03952 whole entry, looked up): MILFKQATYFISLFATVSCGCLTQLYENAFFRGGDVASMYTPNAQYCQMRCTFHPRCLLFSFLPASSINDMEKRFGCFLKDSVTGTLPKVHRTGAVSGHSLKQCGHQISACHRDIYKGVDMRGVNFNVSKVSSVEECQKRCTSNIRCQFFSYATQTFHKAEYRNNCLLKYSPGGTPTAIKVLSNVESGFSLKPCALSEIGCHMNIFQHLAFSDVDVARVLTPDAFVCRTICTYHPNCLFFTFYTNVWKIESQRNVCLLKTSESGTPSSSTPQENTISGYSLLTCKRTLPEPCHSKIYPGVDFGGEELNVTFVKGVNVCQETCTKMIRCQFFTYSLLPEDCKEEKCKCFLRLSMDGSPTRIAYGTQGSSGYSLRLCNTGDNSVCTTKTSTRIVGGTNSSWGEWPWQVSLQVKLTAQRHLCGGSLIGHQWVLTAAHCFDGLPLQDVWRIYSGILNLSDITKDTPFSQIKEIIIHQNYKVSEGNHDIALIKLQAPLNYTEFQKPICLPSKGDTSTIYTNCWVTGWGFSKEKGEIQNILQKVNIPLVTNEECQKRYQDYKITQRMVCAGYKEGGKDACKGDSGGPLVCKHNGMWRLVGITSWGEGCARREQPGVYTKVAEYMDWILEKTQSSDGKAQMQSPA
Sequence of purified human plasma kallikrein (P03952 whole entry partner, looked up): as the sequence (P03952 whole entry, looked up) above

Sequence of purified human Factor XIa (P03951 whole entry, looked up): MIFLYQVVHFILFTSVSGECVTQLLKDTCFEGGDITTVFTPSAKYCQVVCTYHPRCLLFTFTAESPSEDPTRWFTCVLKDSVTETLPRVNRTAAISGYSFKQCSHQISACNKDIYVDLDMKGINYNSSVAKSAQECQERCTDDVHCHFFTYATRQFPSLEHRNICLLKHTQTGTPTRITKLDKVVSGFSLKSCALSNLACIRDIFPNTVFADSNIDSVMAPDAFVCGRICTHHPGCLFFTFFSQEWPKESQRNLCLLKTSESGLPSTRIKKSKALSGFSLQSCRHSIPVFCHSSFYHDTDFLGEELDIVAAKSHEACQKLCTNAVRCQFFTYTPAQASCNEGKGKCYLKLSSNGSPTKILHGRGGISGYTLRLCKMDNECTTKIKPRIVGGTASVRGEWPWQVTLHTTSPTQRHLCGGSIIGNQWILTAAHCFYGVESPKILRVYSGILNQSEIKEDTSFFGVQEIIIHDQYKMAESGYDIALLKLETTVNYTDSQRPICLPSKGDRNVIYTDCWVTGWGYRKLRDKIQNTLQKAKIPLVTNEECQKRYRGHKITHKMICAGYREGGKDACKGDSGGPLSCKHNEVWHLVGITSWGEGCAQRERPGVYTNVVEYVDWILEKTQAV
Sequence of purified human Factor XIa (P03951 whole entry partner, looked up): as the sequence (P03951 whole entry, looked up) above

| Compound | Ki ([1]; read-out: Factor XIa Ki) | Ki ([2]; read-out: Plasma Kallikrein Ki) | Ki [1] | Ki ([2]; Plasma Kallikrein Ki) |
| --- | --- | --- | --- | --- |
| COC(=O)Nc1ccc2c(c1)NC(=O)[C@H](C)CCC[C@H](N1CCC(c3c(C#N)ccc(C#N)c3F)=CC1=O)c1cc-2cc(OC)n1 [Example 7, Methyl N-[(10R,14S)-14-[4-(3,6-dicyano-2-fluorophenyl)-6-oxo-1,2,3,6-tetrahydropyridin-1-yl]-17-methoxy-10-methyl-9-oxo-8,16-diazatricyclo[13.3.1.0^2,7]nonadeca-1(18),2,4,6,15(19),16-hexaen-5-yl]carbamate] | 5.42 nM | 10 nM |  |  |
| C[C@@H]1CCC[C@H](N2CCC(c3c(C#N)ccc(C#N)c3F)=CC2=O)c2cc(ccn2)-c2c(ccc(F)c2F)NC1=O [Example 209, 2-{1-[(10R,14S)-3,4-difluoro-10-methyl-9-oxo-8,16-diazatricyclo[13.3.1.0^2,7]nonadeca-1(19),2(7),3,5,15,17-hexaen-14-yl]-6-oxo-1,2,3,6-tetrahydropyridin-4-yl}-3-fluorobenzene-1,4-dicarbonitrile, TFA salt] | 120 nM | 457 nM |  |  |
| C[C@@H]1CCC[C@H](N2CCC(c3c(F)ccc(Cl)c3F)=CC2=O)c2cc(ccn2)-c2c(cccc2C(=O)O)NC1=O [Example 214, (10R,14S)-14-[4-(3-chloro-2,6-difluorophenyl)-6-oxo-1,2,3,6-tetrahydropyridin-1-yl]-10-methyl-9-oxo-8,16-diazatricyclo[13.3.1.0^2,7]nonadeca-1(19),2(7),3,5,15,17-hexaene-3-carboxylic acid, TFA salt] | > 423 nM | > 13000 nM |  |  |
| COC(=O)Nc1ccc2c(c1)NC(=O)[C@H](C)CCC[C@H](n1ncc(-c3c(C#N)ccc(Cl)c3F)cc1=O)c1cc-2ccn1 [Example 79, Methyl N-[(10R,14S)-14-[4-(3-chloro-6-cyano-2-fluorophenyl)-6-oxo-1,6-dihydropyridazin-1-yl]-10-methyl-9-oxo-8,16-diazatricyclo[13.3.1.0^2,7]nonadeca-1(19),2(7),3,5,15,17-hexaen-5-yl]carbamate, TFA salt] | 0.55 nM | 3 nM |  |  |
| C[C@@H]1CCC[C@H](N2CCC(c3c(F)ccc(Cl)c3F)=CC2=O)c2cc(ccn2)-c2ccc(Nc3ccncc3)cc2NC1=O [Example 89, (10R,14S)-14-[4-(3-Chloro-2,6-difluorophenyl)-6-oxo-1,2,3,6-tetrahydropyridin-1-yl]-10-methyl-5-[(pyridin-4-yl)amino]-8,16-diazatricyclo[13.3.1.0^2,7]nonadeca-1(19),2(7),3,5,15,17-hexaen-9-one, 2 TFA salt] | 2.43 nM | 5 nM |  |  |
| COC(=O)Nc1ccc2c(c1)NC(=O)[C@H](C)CCC[C@H](N1CCC(c3c(OC)ccc(Cl)c3F)=CC1=O)c1cc-2ccn1 [Example 1, Methyl N-[(10R,14S)-14-[4-(3-chloro-2-fluoro-6-methoxyphenyl)-6-oxo-1,2,3,6-tetrahydropyridin-1-yl]-10-methyl-9-oxo-8,16-diazatricyclo[13.3.1.0^2,7]nonadeca-1(19),2,4,6,15,17-hexaen-5-yl]carbamate, TFA salt] | 0.87 nM | 10 nM |  |  |
| C[C@@H]1CCC[C@H](N2CCC(c3c(-n4cnnn4)ccc(Cl)c3F)=CC2=O)c2cc(ccn2)-c2cc(F)c(F)cc2NC1=O [Example 215, (10R,14S)-14-{4-[3-chloro-2-fluoro-6-(1H-1,2,3,4-tetrazol-1-yl)phenyl]-6-oxo-1,2,3,6-tetrahydropyridin-1-yl}-4,5-difluoro-10-methyl-8,16-diazatricyclo[13.3.1.0^2,7]nonadeca-1(19),2(7),3,5,15,17-hexaen-9-one, TFA salt] | 0.07 nM | 3.61 nM |  |  |
| COC(=O)Nc1ccc2c(c1)C(=O)NCCCCC[C@H](N1CCC(c3c(F)ccc(Cl)c3F)=CC1=O)c1cc-2ccn1 [Example 152, Methyl N-[(15S)-15-[4-(3-chloro-2,6-difluorophenyl)-6-oxo-1,2,3,6-tetrahydropyridin-1-yl]-8-oxo-9,17-diazatricyclo[14.3.1.0^2,7]icosa-1(20),2(7),3,5,16,18-hexaen-5-yl]carbamate, TFA salt] | 25.6 nM | 24.3 nM |  |  |
| Cc1[nH]c2cc3c(cc2c1C(=O)O)-c1ccnc(c1)[C@@H](N1CCC(c2c(F)ccc(Cl)c2F)=CC1=O)CCC[C@@H](C)C(=O)N3 [Example 83, (13R,17S)-17-[4-(3-Chloro-2,6-difluorophenyl)-6-oxo-1,2,3,6-tetrahydropyridin-1-yl]-6,13-dimethyl-12-oxo-7,11,19-triazatetracyclo[16.3.1.0^2,10.0^4,8]docosa-1(22),2,4(8),5,9,18,20-heptaene-5-carboxylic acid, TFA salt] | 0.06 nM | 7 nM |  |  |
| C[C@@H]1CCC[C@H](N2CCC(c3c(F)ccc(Cl)c3F)=CC2=O)c2cccc(c2)-c2cc(C(=O)O)ccc2NC1=O [Example 166, (10R,14S)-14-[4-(3-chloro-2,6-difluorophenyl)-6-oxo-1,2,3,6-tetrahydropyridin-1-yl]-10-methyl-9-oxo-8-azatricyclo[13.3.1.0^2,7]nonadeca-1(19),2,4,6,15,17-hexaene-4-carboxylic acid] | 6.38 nM | 113 nM |  |  |
| C[C@@H]1CCC[C@H](N2CCC(c3c(F)ccc(Cl)c3F)=CC2=O)c2cc(ccn2)-c2cc3c(cc2NC1=O)NC(=O)C3 [Example 84, (13R,17S)-17-[4-(3-Chloro-2,6-difluorophenyl)-6-oxo-1,2,3,6-tetrahydropyridin-1-yl]-13-methyl-7,11,19-triazatetracyclo[16.3.1.0^2,10.0^4,8]docosa-1(22),2,4(8),9,18,20-hexaene-6,12-dione, TFA salt] | 2.68 nM | 16 nM |  |  |
| C[C@@H]1CCC[C@H](N2CCC(c3c(F)ccc(Cl)c3F)=CC2=O)c2cc(ccn2)-c2cc(Cl)c(O)cc2NC1=O [Example 19, (10R,14S)-4-Chloro-14-[4-(3-chloro-2,6-difluorophenyl)-6-oxo-1,2,3,6-tetrahydropyridin-1-yl]-5-hydroxy-10-methyl-8,16-diazatricyclo[13.3.1.0^2,7]nonadeca-1(19),2,4,6,15,17-hexaen-9-one, TFA salt] | 15.5 nM | 52 nM |  |  |
| C[C@@H]1CCC[C@H](N2CCC(c3c(F)ccc(Cl)c3F)=CC2=O)c2cc(ccn2)-c2c(F)cc(F)cc2NC1=O [Example 201, (10R,14S)-14-[4-(3-chloro-2,6-difluorophenyl)-6-oxo-1,2,3,6-tetrahydropyridin-1-yl]-3,5-difluoro-10-methyl-8,16-diazatricyclo[13.3.1.0^2,7]nonadeca-1(19),2(7),3,5,15,17-hexaen-9-one, TFA salt] | 50 nM | 105 nM |  |  |
| COC(=O)Nc1ccc2c(c1)NC(=O)[C@H](C)CCC[C@H](N1CCC(c3c(C(C)=O)ccc(Cl)c3F)=CC1=O)c1cc(F)cc-2c1 [Example 191, Methyl N-[(10R,14S)-14-[4-(6-acetyl-3-chloro-2-fluorophenyl)-6-oxo-1,2,3,6-tetrahydropyridin-1-yl]-17-fluoro-10-methyl-9-oxo-8-azatricyclo[13.3.1.0^2,7]nonadeca-1(19),2,4,6,15,17-hexaen-5-yl]carbamate] | 0.23 nM | 19.2 nM |  |  |
| COC(=O)Nc1ccc2c(c1)NC(=O)C(C)(O)CCC[C@H](N1CCC(c3c(F)ccc(Cl)c3F)=CC1=O)c1cc-2ccn1 (single isomer, unassigned) [Example 124, TFA salt] |  |  | 346 nM | 483 nM |
| CC1CCC[C@H](N2CCC(c3c(C(F)(F)F)ccc(Cl)c3F)=CC2=O)c2cc(ccn2)-c2ccc(C(=O)O)cc2NC1=O (stereo partly drawn) [Example 106, (14S)-14-{4-[3-Chloro-2-fluoro-6-(trifluoromethyl)phenyl]-6-oxo-1,2,3,6-tetrahydropyridin-1-yl}-10-methyl-9-oxo-8,16-diazatricyclo[13.3.1.0^2,7]nonadeca-1(18),2,4,6,15(19),16-hexaene-5-carboxylic acid, TFA salt] | > 342 nM | 890 nM |  |  |
| Cc1nnc(Nc2ccc3c(c2)NC(=O)[C@H](C)CCC[C@H](N2CCC(c4c(F)ccc(Cl)c4F)=CC2=O)c2ccnc-3c2)o1 [Example 37, (10R,14S)-14-[4-(3-Chloro-2,6-difluorophenyl)-6-oxo-1,2,3,6-tetrahydropyridin-1-yl]-10-methyl-5-[(5-methyl-1,3,4-oxadiazol-2-yl)amino]-8,18-diazatricyclo[13.3.1.0^2,7]nonadeca-1(19),2(7),3,5,15,17-hexaen-9-one, TFA salt] | 0.87 nM | 1 nM |  |  |
| C[C@@H]1CCC[C@H](N2CCC(c3cccc(Cl)c3F)=CC2=O)c2cc(ccn2)-c2ccccc2NC1=O [Example 47, (10R,14S)-14-[4-(3-Chloro-2-fluorophenyl)-6-oxo-1,2,3,6-tetrahydropyridin-1-yl]-10-methyl-8,16-diazatricyclo[13.3.1.0^2,7]nonadeca-1(19),2,4,6,15,17-hexaen-9-one, TFA salt] | 86.3 nM | 66 nM |  |  |
| CC1CCC[C@H](N2CCC(c3c(C(F)(F)F)ccc(Cl)c3F)=CC2=O)c2cc(ccn2)-c2ccc(C(N)=O)cc2NC1=O (stereo partly drawn) [Example 108, (14S)-14-{4-[3-Chloro-2-fluoro-6-(trifluoromethyl)phenyl]-6-oxo-1,2,3,6-tetrahydropyridin-1-yl}-10-methyl-9-oxo-8,16-diazatricyclo[13.3.1.0^2,7]nonadeca-1(18),2,4,6,15(19),16-hexaene-5-carboxamide, TFA salt] | 8.13 nM | 29 nM |  |  |
| COC(=O)c1ccc2c(c1)-c1cccc(c1)[C@@H](N1CCC(c3c(F)ccc(Cl)c3F)=CC1=O)CCC[C@@H](C)C(=O)N2 [Example 164, Methyl (10R,14S)-14-[4-(3-chloro-2,6-difluorophenyl)-6-oxo-1,2,3,6-tetrahydropyridin-1-yl]-10-methyl-9-oxo-8-azatricyclo[13.3.1.0^2,7]nonadeca-1(19),2,4,6,15,17-hexaene-4-carboxylate] | > 398 nM | 442 nM |  |  |
| COC(=O)Nc1ccc2c(c1)NC(=O)[C@H](C)CCC[C@H](N1CCC(c3c(F)ccc(Br)c3F)=CC1=O)c1cc-2ccn1 [Example 190, Methyl N-[(10R,14S)-14-[4-(3-bromo-2,6-difluorophenyl)-6-oxo-1,2,3,6-tetrahydropyridin-1-yl]-10-methyl-9-oxo-8,16-diazatricyclo[13.3.1.0^2,7]nonadeca-1(19),2,4,6,15,17-hexaen-5-yl]carbamate] | 0.27 nM | 1.11 nM |  |  |
